The values that follow come from US20250101032A1, “EXATECAN DERIVATIVES AND ANTIBODY-DRUG CONJUGATES THEREOF” (priority 2021, published 2025).

In brackets after ≈: the same amount, converted by molar mass.

One data set is described as follows: physchem. To be noted: 25 °C, pH 7.4, aqueous buffer, kinetic from dmso stock.
A further data set relates to SKBR3. Kind of data set: In vitro cytotoxicity assay (CellTiter-Glo), SKBR3. Conditions: Homo sapiens, SK-BR-3, 144 h, read-out: Cytotoxicity IC50. Format: cell-based, Human. (In general: In ATP-based viability assays light output follows the ATP content of the culture.)
The test system of a further data set is HT29. Kind of data set: In vitro cytotoxicity assay (CellTiter-Glo), HT29. Format: cell-based, Human. To be noted: Homo sapiens, HT-29, 144 h, read-out: Cytotoxicity IC50. The essentials:
(§1)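 HT29, MCF7, NCI-H292 and NCI-N87 cells in RPMI-1640 with 10% heat-inactivated FBS were seeded at 2.0×10^3 cells per well and left 24 hours. Ten-point serial dilutions of compound, in duplicate or triplicate, were then added for 6 days at 37° C, 5% CO2. Viability was read by CellTiter-Glo luminescence to give IC50s.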

The next data set concerns NCI-H292. Description: In vitro cytotoxicity assay (CellTiter-Glo), NCI-H292. Conditions: Homo sapiens, NCI-H292, 144 h, read-out: Cytotoxicity IC50. Format: cell-based, Human. The essentials:
as §1

The next data set relates to MCF7. Kind of data set: In vitro cytotoxicity assay (CellTiter-Glo), MCF7. The format is cell-based, Human. To be noted: Homo sapiens, MCF7, 144 h, read-out: Cytotoxicity IC50. The essentials:
as §1

The test system of the next data set is NCI-N87. Kind of data set: In vitro cytotoxicity assay (CellTiter-Glo), NCI-N87. The format is cell-based, Human. To be noted: Homo sapiens, NCI-N87, 144 h, read-out: Cytotoxicity IC50. The essentials: as §1
Another data set concerns FaDu. Kind of data set: In vitro cytotoxicity assay (CellTiter-Glo), FaDu. Conditions: Homo sapiens, FaDu, 144 h, read-out: Cytotoxicity IC50. The format is cell-based, Human.
The next data set deals with SKOV3. Description: In vitro cytotoxicity assay (CellTiter-Glo), SKOV3. The format is cell-based. Conditions: Homo sapiens, SK-OV-3, 144 h, read-out: Cytotoxicity IC50. As to the method:
(§2) Lyophilized compounds were dissolved in 100% dry DMSO, aliquots frozen and stored at −80° C. […] Shimadzu 3.0 mm×30 mm XR ODS 2.2 μm column was run at 50° C., 1.5 mL/min. Solvent A: 0.1% Formic acid in water, Solvent B: 0.08% Formic acid in methanol-Gradient: 5%-100% B in 3.0 min, 100% solvent B for 0.3 min.
(§3) Cells were plated in 96-well white flat-bottomed plates (Corning) at 2.0×10^3 cells per well in 100 μL culture medium. After incubation for 24 hours, test compounds were added at a range of concentrations as ten point serial dilution as duplicates or triplicates. Following further incubation for 6 days 37° C., 5% CO2, cell viability was assessed with the use of a CellTiter-Glo Luminescent Cell Viability Assay (Promega). Luminescence was measured using the GloMax instrument (Promega). […] For a subset of payloads, each treatment was independently repeated two to eight times, and IC50 values were averaged. […] Standard deviation (stdev) is shown as (N/A) for treatment performed once.

The next data set relates to BXPC3. Description: In vitro cytotoxicity assay (CellTiter-Glo), BXPC3. The format is cell-based. To be noted: Homo sapiens, BXPC-3, 144 h, read-out: Cytotoxicity IC50. On the procedure:
as §2, §3

As to `CC[C@@]1(O)C(=O)OCc2c1cc1n(c2=O)Cc2c-1nc1cc(F)c(C)c3c1c2[C@@H](N)CC3` [Exatecan, exatecan], in “physchem”, the solubility (usually how much of the substance goes into solution per volume) at 30 min stood at 24 µM (≈ 10.5 µg/mL). Besides, the concentration for half-maximal inhibition (IC50) – broadly, the midpoint of a concentration-inhibition curve – with SKBR3 is 500 pM; in the data set on HT29 it was 1000 pM; in the data set with NCI-H292, 1300 pM; in the data set with MCF7 it was 400 pM; in the data set on NCI-N87, 1200 pM; in the data set on FaDu, 600 pM. Further, the half-inhibitory concentration (IC50) came to 700 pM with SKOV3 and 300 pM in the data set with BXPC3.
